In paper PMC12692968, “Design, Synthesis, Molecular Docking, and Anticancer Activity of Chalcone Derivatives as VEGFR-2 Inhibitors” (Molecules, 2025):
Read-outs that look alike come from different tables or passages of the source.

Key:
[1] = tested on: human chronic myeloid leukemia cell line K562; assay: CCK-8 cytotoxicity assay, K562 cells; type: cell-based; details: for IC50: CCK-8, 48 h incubation, mean ± SD, n = 3
Procedure: (§1) The SiHa, K562, B16 and HK-2 cells were obtained from Wuhan Pricella Biotechnology Co., Ltd. (Wuhan, China). […] 2–5 × 10^3 cells were added to each well of a 96-well plate and incubated for 12 h, followed by the addition of the tested compounds. After incubation for 48 h, 10 μL of the CCK-8 solution was added to each well and incubated for another 2 h. The absorbance of each well was measured at 450 nm using an enzyme-linked immunosorbent assay (ELISA) reader. The experiments were replicated three times. The inhibition rate of cancer cells was calculated using the Formula (1). The half-maximal inhibitory concentration (IC50) value was calculated using GraphPad Prism 8.0 software.

[2] = tested on: human renal epithelial cell line HK-2; assay: CCK-8 cytotoxicity assay, HK-2 cells; type: cell-based; details: Homo sapiens, Epithelial cell; CCK-8, 48 h incubation, mean ± SD, n = 3
Procedure: as §1, with “The cytotoxicity of synthesized compounds against HK-2 cells was also detected. […] The SiHa,” for “The SiHa,”

[3] = target: T1, VEGFR-2 (KDR) protein kinase (Homo sapiens, UniProt P35968); assay: VEGFR-2 (KDR) Kinase Assay Kit enzyme inhibition assay; type: biochemical; details: Kinase-Glo MAX, 30 °C 45 min, mean ± SD, n = 3
T1 construct: purchased BPS Biosciences, San Diego, CA, USA
Procedure: Many studies have shown that abnormal VEGFR-2 signaling could induce proliferation of cervical squamous cell carcinoma cells, myeloid leukemia cancer cells, and melanoma cells. […] A VEGFR-2 (KDR) Kinase Assay Kit (BPS Biosciences, San Diego, CA, USA) was used to conduct a VEGFR-2 inhibition assay following the manufacturer’s protocol. Briefly, kinase buffer and ATP and PTK substrate (Poly-Glu,Tyr 4:1) were diluted with distilled water to prepare a master mix solution. The master mix solution, test sample, and VEGFR-2 (KDR) protein kinase (2 ng/μL) were added to a 96-well plate and incubated at 30 °C for 45 min. After incubation, Kinase-Glo™ MAX (BPS Biosciences) reagent was added to each well, and incubated for 15 min at room temperature. Then it was immediately detected with an ELISA reader. The experiments were replicated three times.

[4] = tested on: human cervical squamous cell carcinoma cell line SiHa; assay: CCK-8 cytotoxicity assay, SiHa cells; type: cell-based; details: for IC50: CCK-8, 48 h incubation, mean ± SD, n = 3
Procedure: as §1

[5] = tested on: mouse melanoma cell line B16; assay: CCK-8 cytotoxicity assay, B16 cells; type: cell-based; details: for IC50: CCK-8, 48 h incubation, mean ± SD, n = 3
Procedure: as §1

[6] = CCK-8 cytotoxicity assay, HK-2 cells; type: cell-based, human
Procedure: as §1, with “The cytotoxicity of synthesized compounds against HK-2 cells was also detected. […] The SiHa,” for “The SiHa,”

[7] = tested on: K562 cells; assay: Annexin V apoptosis assay by flow cytometry; type: cell-based, human
Excerpt: Enhancing apoptotic cell death is a crucial way for anticancer drugs to eliminate cancer cells.
The sample was centrifuged to isolate the cells and the kit instructions were followed for subsequent processing. Finally, apoptosis was quantified using a flow cytometer (Cytek Northern Light 3 Laser 16V-14B-8R, Wuxi, China). The experiments were replicated three times.

[8] = tested on: K562 cells; assay: Cell cycle analysis, PI staining, flow cytometry; type: cell-based, human; details: 5 μM, 24 h
Procedure: Cytotoxic compounds often inhibit cell proliferation by arresting the cell cycle at a specific phase.
The sample was then centrifuged (2000 rpm for 5 min), and the supernatant was aspirated. The fixed cells were resuspended in 0.5 mL of PI solution, cultured at 37 °C in the dark for 30 min, and then cultured at 4 °C in the dark for another 30 min Finally, the cell cycle sample was determined with a flow cytometer (Cytek Northern Light 3 laser 16V-14B-8R, Wuxi, China). The experiments were replicated three times.

[9] = tested on: VEGFR-2; details: reported chalcone VEGFR-2 inhibitors, Figure 1; cited from earlier work
[10] = K562, 1.25, 2.5 and 5.0 μM, 24 h

T1 sequence (P35968 20-1356): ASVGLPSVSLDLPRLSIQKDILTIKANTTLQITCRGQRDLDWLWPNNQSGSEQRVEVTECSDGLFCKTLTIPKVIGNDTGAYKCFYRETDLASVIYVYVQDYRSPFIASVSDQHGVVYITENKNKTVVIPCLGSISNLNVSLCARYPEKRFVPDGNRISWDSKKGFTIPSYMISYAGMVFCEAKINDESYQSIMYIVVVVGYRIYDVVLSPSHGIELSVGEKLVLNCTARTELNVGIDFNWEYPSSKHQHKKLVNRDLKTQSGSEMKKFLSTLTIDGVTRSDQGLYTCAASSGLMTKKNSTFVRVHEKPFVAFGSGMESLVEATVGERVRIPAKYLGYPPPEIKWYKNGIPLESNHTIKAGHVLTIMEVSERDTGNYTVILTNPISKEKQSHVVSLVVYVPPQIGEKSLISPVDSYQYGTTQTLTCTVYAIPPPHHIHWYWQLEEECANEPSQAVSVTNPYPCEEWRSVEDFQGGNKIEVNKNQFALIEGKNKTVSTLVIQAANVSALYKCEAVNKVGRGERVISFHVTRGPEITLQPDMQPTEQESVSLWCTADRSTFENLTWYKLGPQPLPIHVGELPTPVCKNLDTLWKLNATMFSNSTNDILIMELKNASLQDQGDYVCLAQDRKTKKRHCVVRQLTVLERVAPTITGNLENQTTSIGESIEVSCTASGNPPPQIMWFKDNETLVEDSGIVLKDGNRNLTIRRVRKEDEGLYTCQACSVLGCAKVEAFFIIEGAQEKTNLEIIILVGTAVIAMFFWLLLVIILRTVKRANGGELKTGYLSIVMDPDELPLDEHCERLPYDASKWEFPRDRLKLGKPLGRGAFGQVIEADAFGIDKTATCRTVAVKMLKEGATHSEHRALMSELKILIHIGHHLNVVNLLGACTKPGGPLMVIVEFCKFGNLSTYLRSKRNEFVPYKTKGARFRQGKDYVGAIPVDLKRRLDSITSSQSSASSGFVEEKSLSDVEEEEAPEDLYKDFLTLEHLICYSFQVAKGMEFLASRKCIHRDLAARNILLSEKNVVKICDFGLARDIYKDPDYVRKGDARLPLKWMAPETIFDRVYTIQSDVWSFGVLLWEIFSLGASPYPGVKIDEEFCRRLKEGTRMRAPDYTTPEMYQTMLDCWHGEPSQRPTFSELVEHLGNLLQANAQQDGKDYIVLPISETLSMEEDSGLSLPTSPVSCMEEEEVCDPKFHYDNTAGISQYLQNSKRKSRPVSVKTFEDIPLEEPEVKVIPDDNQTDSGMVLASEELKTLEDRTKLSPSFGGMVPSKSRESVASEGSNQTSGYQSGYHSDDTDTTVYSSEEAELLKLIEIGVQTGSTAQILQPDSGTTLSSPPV

SMILES | IC50 ([1]; Homo sapiens, K562, 48 h) | IC50 [2] | IC50 [3] | IC50 ([4]; Homo sapiens, SiHa) | IC50 ([5]; Mus musculus, B16, 48 h) | other results
COc1ccc(/C=C/C(=O)c2ccc(NC(=O)Nc3ccc(Cl)c(C(F)(F)F)c3)cc2)cc1O [Compound 2o, (E)-1-(4-chloro-3-(trifluoromethyl)phenyl)-3-(4-(3-(3-hydroxy-4-methoxyphenyl)acryloyl)phenyl)urea] | 1.51 ± 0.16 µM | 19.1 ± 1.05 µM | 0.31 ± 0.02 µM | 1.22 ± 0.07 µM | 3.06 ± 0.22 µM | –
COc1cc(/C=C/C(=O)c2ccc(NC(=O)Nc3ccc(Cl)c(C(F)(F)F)c3)cc2)cc(OC)c1O [Compound 2r, (E)-1-(4-chloro-3-(trifluoromethyl)phenyl)-3-(4-(3-(4-hydroxy-3,5-dimethoxyphenyl)acryloyl)phenyl)urea] | 0.97 ± 0.06 µM | 11.3 ± 0.66 µM | – | 2.22 ± 0.1 µM | 2.93 ± 0.29 µM | –
COc1cc(/C=C/C(=O)c2ccc(NC(=O)Nc3ccc(Cl)c(C(F)(F)F)c3)cc2)cc(OC)c1 [Compound 2h, (E)-1-(4-chloro-3-(trifluoromethyl)phenyl)-3-(4-(3-(3,5-dimethoxyphenyl)acryloyl)phenyl)urea] | 1.62 to 2.02 µM | 9.87 ± 0.89 µM | – | 2.99 ± 0.27 µM | 1.62 to 2.02 µM | IC50 [1]: 2.02 ± 0.12 µM; IC50 [5]: 1.62 ± 0.14 µM
COc1cc(/C=C/C(=O)c2ccc(NC(=O)Nc3ccc(Cl)c(C(F)(F)F)c3)cc2)ccc1O [Compound 2p, (E)-1-(4-chloro-3-(trifluoromethyl)phenyl)-3-(4-(3-(4-hydroxy-3-methoxyphenyl)acryloyl)phenyl)urea] | 3.42 ± 0.18 µM | 13.9 ± 0.58 µM | – | 4.25 ± 0.14 µM | 4.37 ± 0.28 µM | –
O=C(Nc1ccc(C(=O)/C=C/c2cccs2)cc1)Nc1ccc(Cl)c(C(F)(F)F)c1 [Compound 2n, (E)-1-(4-chloro-3-(trifluoromethyl)phenyl)-3-(4-(3-(thiophen-2-yl)acryloyl)phenyl)urea] | 15.2 ± 1.2 µM | – | 2.2 ± 0.1 µM | – | – | IC50 ([4]; Homo sapiens, SiHa, 48 h): > 20 µM
O=C(Nc1ccc(C(=O)/C=C/c2ccc(O)c(O)c2)cc1)Nc1ccc(Cl)c(C(F)(F)F)c1 [Compound 2q, (E)-1-(4-chloro-3-(trifluoromethyl)phenyl)-3-(4-(3-(3,4-dihydroxyphenyl)acryloyl)phenyl)urea] | 1.12 ± 0.1 µM | 24.3 ± 1.71 µM | 0.55 ± 0.04 µM | 2.53 ± 0.09 µM | 4.49 ± 0.24 µM | –
O=C(Nc1ccc(C(=O)/C=C/c2cc(F)cc(F)c2)cc1)Nc1ccc(Cl)c(C(F)(F)F)c1 [Compound 2l, (E)-1-(4-chloro-3-(trifluoromethyl)phenyl)-3-(4-(3-(3,5-difluorophenyl)acryloyl)phenyl)urea] | 0.91 ± 0.07 µM | 25.4 ± 1.47 µM | 0.42 ± 0.03 µM | – | 1.25 to 1.39 µM | IC50 [1]: 1.3 ± 0.07 µM; selectivity ratio at 48 h ([6]; human (HK-2), mouse (B16), HK-2 cells versus B16 cells, HK-2 vs B16, read-out: selectivity toward B16, fold decrease in cytotoxicity against HK-2): 18.2; selectivity ratio at 48 h ([6]; human, HK-2 cells versus K562 cells, HK-2 vs K562, read-out: selectivity toward K562, fold decrease in cytotoxicity against HK-2): 19.5; selectivity ratio at 48 h ([6]; human, HK-2 cells versus SiHa cells, HK-2 vs SiHa, read-out: selectivity toward SiHa, fold decrease in cytotoxicity against HK-2): 20.3; IC50 [4]: 1.25 ± 0.13 µM; IC50 ([4]; Homo sapiens, SiHa, 48 h): 1.25 to 1.39 µM; IC50 [5]: 1.39 ± 0.21 µM; viability at 1.25 µM ([7]; Homo sapiens, K562, 1.25 μM, plot in Figure 2, read-out: Q4 viable cells): 92.8%; viability at 2.5 µM ([7]; Homo sapiens, K562, 2.5 μM, plot in Figure 2, read-out: Q4 viable cells): 90.5%; viability at 5 µM ([7]; Homo sapiens, K562, 5.0 μM, plot in Figure 2, read-out: Q4 viable cells): 38.8%; early apoptosis ([7]; K562, 1.25 μM, 24 h): 5.80%; early apoptosis ([7]; K562, 2.5 μM, 24 h): 8.34%; early apoptosis ([7]; K562, 5.0 μM, 24 h): 57.79%; late apoptosis [7, 10]: increased in a dose-dependent manner; necrosis of K562 cells [7, 10]: Almost no necrosis; percentage of K562 cells in the G2/M phase ([8]; DMSO 8.00%): 3.05%; percentage of K562 cells in the S phase ([8]; DMSO 43.34%): 43.83%; percentage of K562 cells in the G1 phase ([8]; DMSO 48.66%): 53.12%
CNC(=O)c1cc(Oc2ccc(C(=O)/C=C/c3cc(OC)c(OC)c(OC)c3)cc2)ccn1 [II] | – | – | – | – | – | IC50 [9]: 3.2 µM
O=C(Nc1ccc(C(=O)/C=C/c2ccc(F)cc2)cc1)Nc1ccc(Cl)c(C(F)(F)F)c1 [Compound 2c, (E)-1-(4-chloro-3-(trifluoromethyl)phenyl)-3-(4-(3-(4-fluorophenyl)acryloyl)phenyl)urea] | 2.05 ± 0.13 µM | 15.7 ± 1.22 µM | 0.68 ± 0.03 µM | 1.03 ± 0.02 µM | 5.02 ± 0.18 µM | fold increase in cytotoxicity compared to unsubstituted compound 2a, K562 ([1]; ratio of IC50 values vs 2a): 6.2 fold; fold increase in cytotoxicity compared to unsubstituted compound 2a, SiHa ([4]; ratio of IC50 values vs 2a): 4.3 fold; fold increase in cytotoxicity compared to unsubstituted compound 2a, B16 ([5]; ratio of IC50 values vs 2a): 2.1 fold
COc1cc(/C=C/C(=O)c2ccc(N3CCNCC3)cc2)ccc1F [I] | – | – | – | – | – | IC50 [9]: 0.57 µM
COc1cc(/C=C/C(=O)c2ccc(NC(=O)Nc3ccc(Cl)c(C(F)(F)F)c3)cc2)cc(OC)c1OC [Compound 2f, (E)-1-(4-chloro-3-(trifluoromethyl)phenyl)-3-(4-(3-(3,4,5-trimethoxyphenyl)acryloyl)phenyl)urea] | 1.62 to 2.02 µM | 5.85 ± 0.36 µM | 0.39 ± 0.02 µM | 4.89 ± 0.21 µM | 1.62 to 2.02 µM | IC50 [1]: 1.68 ± 0.09 µM; IC50 [5]: 1.65 ± 0.29 µM
